Like-named read-outs stand apart in the source and are kept apart here.
What was measured:
[1] = system: 229E human corona virus (hCoV); test: 229E live virus assay (CPE, ATPlite readout in MRC-5 cells); format: cell-based, hCoV-229E; details: Human coronavirus 229E, MRC5, 144 h, MOI 0.05, 6 days at 34° C., run in duplicate
SARS-CoV-2 3CL-protease = SARS-CoV-2 3CL-protease (Severe acute respiratory syndrome coronavirus 2, UniProt P0DTD1); test: SARS-CoV-2 3C-like (3CL) protease fluorescence assay (FRET); format: biochemical; details: 30 min preincubation, run in duplicate
[2] = recombinant SARS-CoV-2 3CL-protease 10 nM, read-out: FRET IC50

SMILES | EC50 [1] [nM] | IC50 (SARS-CoV-2 3CL-protease; [2]) [nM] | IC50 (SARS-CoV-2 3CL-protease; FRET IC50, recombinant SARS-CoV-2 3CL-protease 10 nM) [nM]
CC(C)C[C@@H](C(=O)N1C[C@]2(C[C@H]1C#N)C(=O)Nc1ccccc12)N(C)C(=O)C(=O)Nc1ccc(F)cc1F [Example 1] | < 100 | – | –
N#C[C@@H]1C[C@@]2(CN1C(=O)[C@H](CC1CC1)NC(=O)C(=O)NC1(c3ccc(F)cc3F)CC1)C(=O)Nc1ccccc12 [Example 74] | < 100 | < 100 | –
CCCC[C@H](NC(=O)C(=O)Nc1ccc(F)cc1C(F)(F)F)C(=O)N1C[C@]2(C[C@H]1C#N)C(=O)Nc1ccccc12 [Example 75] | < 100 | < 100 | –
CCCC[C@H](NC(=O)C(=O)NC1(c2ccc(F)cc2F)CC1)C(=O)N1C[C@]2(C[C@H]1C#N)C(=O)Nc1ccccc12 [Example 76] | < 100 | < 100 | –
N#C[C@@H]1C[C@@]2(CN1C(=O)[C@H](CC1CC1)NC(=O)C(=O)Nc1ccc(F)cc1C(F)(F)F)C(=O)Nc1ccccc12 [Example 77] | < 100 | < 100 | –
Cc1cccc(C)c1NC(=O)C(=O)N[C@@H](CC(C)(C)C)C(=O)N1C[C@]2(C[C@H]1C#N)C(=O)Nc1ccccc12 [Example 84] | < 100 | < 100 | –
CC(C)(C)C[C@H](NC(=O)C(=O)Nc1ccc2cc(F)ccc2c1)C(=O)N1C[C@]2(C[C@H]1C#N)C(=O)Nc1ccccc12 [Example 85] | < 100 | < 100 | –
CC(C)(C)C[C@H](NC(=O)C(=O)NC1CCC1)C(=O)N1C[C@]2(C[C@H]1C#N)C(=O)Nc1ccccc12 [Example 87] | < 100 | – | –
CCC(C)NC(=O)C(=O)N[C@@H](CC(C)(C)C)C(=O)N1C[C@]2(C[C@H]1C#N)C(=O)Nc1ccccc12 (stereo partly shown) [Example 88] | < 100 | < 100 | –
CC(C)(C)C[C@H](NC(=O)C(=O)Nc1cccc(F)c1)C(=O)N1C[C@]2(C[C@H]1C#N)C(=O)Nc1ccccc12 [Example 89] | < 100 | < 100 | –
CC(C)(C)C[C@H](NC(=O)C(=O)Nc1ccccc1F)C(=O)N1C[C@]2(C[C@H]1C#N)C(=O)Nc1ccccc12 [Example 90] | < 100 | < 100 | –
CC(C)(C)C[C@H](NC(=O)C(=O)Nc1c(F)cc(F)cc1F)C(=O)N1C[C@]2(C[C@H]1C#N)C(=O)Nc1ccccc12 [Example 92] | < 100 | < 100 | –
CC(C)(C)C[C@H](NC(=O)C(=O)Nc1ccc(F)cc1)C(=O)N1C[C@]2(C[C@H]1C#N)C(=O)Nc1ccccc12 [Example 93] | < 100 | < 100 | –
CC(C)(C)C[C@H](NC(=O)C(=O)Nc1ccc(F)cc1F)C(=O)N1C[C@]2(C[C@H]1C#N)C(=O)Nc1ccccc12 [Example 94] | < 100 | < 100 | –
CC(C)(C)C[C@H](NC(=O)C(=O)NC(C)(C)C)C(=O)N1C[C@]2(C[C@H]1C#N)C(=O)Nc1ccccc12 [Example 95] | < 100 | – | –
CC(C)(C)C[C@H](NC(=O)C(=O)Nc1ccc2ccccc2c1)C(=O)N1C[C@]2(C[C@H]1C#N)C(=O)Nc1ccccc12 [Example 96] | < 100 | < 100 | –
CC(C)(C)C[C@H](NC(=O)C(=O)NC1CCCCC1)C(=O)N1C[C@]2(C[C@H]1C#N)C(=O)Nc1ccccc12 [Example 97] | < 100 | < 100 | –
CC(C)(C)C[C@H](NC(=O)C(=O)NC1CCCC1)C(=O)N1C[C@]2(C[C@H]1C#N)C(=O)Nc1ccccc12 [Example 98] | < 100 | < 100 | –
CC(C)(C)C[C@H](NC(=O)C(=O)Nc1ccccc1)C(=O)N1C[C@]2(C[C@H]1C#N)C(=O)Nc1ccccc12 [Example 104] | < 100 | – | –
CC(C)C[C@H](NC(=O)C(=O)Nc1ccc(F)cc1)C(=O)N1C[C@]2(C[C@H]1C#N)C(=O)Nc1ccccc12 [Example 115] | < 100 | < 100 | –
CC(C)[C@H](NC(=O)C(=O)N[C@@H](CC(C)(C)C)C(=O)N1C[C@]2(C[C@H]1C#N)C(=O)Nc1ccccc12)c1ccccc1 [Example 116] | < 100 | < 100 | –
CC(C)(C)C[C@H](NC(=O)C(=O)Nc1c(Cl)cccc1Cl)C(=O)N1C[C@]2(C[C@H]1C#N)C(=O)Nc1ccccc12 [Example 117] | < 100 | < 100 | –
CC(C)(C)C[C@H](NC(=O)C(=O)NC1(c2ccccc2)CC1)C(=O)N1C[C@]2(C[C@H]1C#N)C(=O)Nc1ccccc12 [Example 118] | < 100 | < 100 | –
CC(C)(C)C[C@H](NC(=O)C(=O)NC1(c2ccccc2)CCC1)C(=O)N1C[C@]2(C[C@H]1C#N)C(=O)Nc1ccccc12 [Example 119] | < 100 | < 100 | –
CC(C)(C)C[C@H](NC(=O)C(=O)NC1CC(F)(F)C1)C(=O)N1C[C@]2(C[C@H]1C#N)C(=O)Nc1ccccc12 [Example 120] | < 100 | < 100 | –
CC(C)(C)C[C@H](NC(=O)C(=O)Nc1c(C(F)(F)F)cccc1C(F)(F)F)C(=O)N1C[C@]2(C[C@H]1C#N)C(=O)Nc1ccccc12 [Example 138] | < 100 | < 100 | –

SMILES | EC50 [1] [nM] | IC50 (SARS-CoV-2 3CL-protease; [2]) [nM] | IC50 (SARS-CoV-2 3CL-protease; FRET IC50, recombinant SARS-CoV-2 3CL-protease 10 nM) [nM]
CC(C)(C)C[C@H](NC(=O)C(=O)NCc1ccccc1)C(=O)N1C[C@]2(C[C@H]1C#N)C(=O)Nc1ccccc12 [Example 159] | < 100 | < 100 | –
C[C@@H](NC(=O)C(=O)N[C@@H](CC(C)(C)C)C(=O)N1C[C@]2(C[C@H]1C#N)C(=O)Nc1ccccc12)c1ccccc1 [Example 160] | < 100 | < 100 | –
C[C@H](NC(=O)C(=O)N[C@@H](CC(C)(C)C)C(=O)N1C[C@]2(C[C@H]1C#N)C(=O)Nc1ccccc12)c1ccccc1 [Example 161] | < 100 | < 100 | –
CC(C)(C)C[C@H](NC(=O)C(=O)c1ccccc1)C(=O)N1C[C@]2(C[C@H]1C#N)C(=O)Nc1ccccc12 [Example 179] | 100 to 1000 | 100 to 1000 | –
CC(C)(C)C[C@H](NC(=O)C(=O)C(C)(C)C)C(=O)N1C[C@]2(C[C@H]1C#N)C(=O)Nc1ccccc12 [Example 180] | 100 to 1000 | > 1000 | –
CC(C)(C)C[C@H](NC(=O)C(=O)c1c[nH]c2ccccc12)C(=O)N1C[C@]2(C[C@H]1C#N)C(=O)Nc1ccccc12 [Example 181] | 100 to 1000 | 100 to 1000 | –
CC(C)(C)C[C@H](NC(=O)C(=O)c1ccccc1F)C(=O)N1C[C@]2(C[C@H]1C#N)C(=O)Nc1ccccc12 [Example 182] | 100 to 1000 | 100 to 1000 | –
CC(C)(C)C[C@H](NC(=O)C(=O)C1CCCCC1)C(=O)N1C[C@]2(C[C@H]1C#N)C(=O)Nc1ccccc12 [Example 183] | 100 to 1000 | < 100 | –
[2H]C([2H])([2H])N(C(=O)C(=O)NCc1ccc(F)cc1F)[C@@H](CC1CC1)C(=O)N1C[C@]2(C[C@H]1C#N)C(=O)Nc1ccccc12 [Example 190] | < 100 | < 100 | –
[2H]C([2H])([2H])N(C(=O)C(=O)NC1(c2ccc(F)cc2F)CC1)[C@@H](CC1CC1)C(=O)N1C[C@]2(C[C@H]1C#N)C(=O)Nc1ccccc12 [Example 191] | < 100 | < 100 | –
[2H]C([2H])([2H])N(C(=O)C(=O)NCC1(C(F)(F)F)CC1)[C@@H](CC1CC1)C(=O)N1C[C@]2(C[C@H]1C#N)C(=O)Nc1ccccc12 [Example 192] | < 100 | < 100 | –
CC(C)(C)C[C@H](NC(=O)C(=O)Nc1c(F)cccc1C(F)(F)F)C(=O)N1C[C@]2(C[C@H]1C#N)C(=O)Nc1ccccc12 [Example 196] | – | < 100 | –
CC(C)(C)C[C@H](NC(=O)C(=O)Nc1c(Cl)cccc1C(F)(F)F)C(=O)N1C[C@]2(C[C@H]1C#N)C(=O)Nc1ccccc12 [Example 197] | – | < 100 | –
CN(C(=O)C(=O)Nc1ccc(C(F)(F)F)cc1C(F)(F)F)[C@@H](CC1CC1)C(=O)N1C[C@]2(C[C@H]1C#N)C(=O)Nc1ccccc12 [Example 198] | – | – | < 100
N#C[C@@H]1C[C@@]2(CN1C(=O)[C@H](CC1CC1)NC(=O)C(=O)Nc1ccc(C(F)(F)F)cc1C(F)(F)F)C(=O)Nc1ccccc12 [Example 199] | – | < 100 | –
N#C[C@@H]1C[C@@]2(CN1C(=O)[C@H](CC1CC1)NC(=O)C(=O)Nc1c(F)cccc1C(F)(F)F)C(=O)Nc1ccccc12 [Example 200] | – | < 100 | –
Cc1cccc(C)c1NC(=O)C(=O)N[C@@H](CC(C)C)C(=O)N1C[C@]2(C[C@H]1C#N)C(=O)Nc1ccccc12 [Example 201] | – | < 100 | –
CCCC[C@H](NC(=O)C(=O)Nc1c(C)cccc1C)C(=O)N1C[C@]2(C[C@H]1C#N)C(=O)Nc1ccccc12 [Example 202] | – | < 100 | –
Cc1cccc(C)c1NC(=O)C(=O)N[C@@H](Cc1ccccc1)C(=O)N1C[C@]2(C[C@H]1C#N)C(=O)Nc1ccccc12 [Example 203] | – | < 100 | –
CC(C)(C)C[C@H](NC(=O)C(=O)Nc1c(Cl)cc(F)cc1Cl)C(=O)N1C[C@]2(C[C@H]1C#N)C(=O)Nc1ccccc12 [Example 204] | – | < 100 | –
N#C[C@@H]1C[C@@]2(CN1C(=O)[C@H](CC1CC1)NC(=O)C(=O)Nc1c(Cl)cc(Cl)cc1C(F)(F)F)C(=O)Nc1ccccc12 [Example 205] | – | < 100 | –
N#C[C@@H]1C[C@@]2(CN1C(=O)[C@H](CC1CC1)NC(=O)C(=O)Nc1c(C(F)(F)F)cncc1C(F)(F)F)C(=O)Nc1ccccc12 [Example 206] | – | < 100 | –
CC(C)(C)C[C@H](NC(=O)C(=O)Nc1c(C(F)(F)F)cncc1C(F)(F)F)C(=O)N1C[C@]2(C[C@H]1C#N)C(=O)Nc1ccccc12 [Example 207] | – | < 100 | –
N#C[C@@H]1C[C@@]2(CN1C(=O)[C@H](CC1CC1)NC(=O)C(=O)Nc1c(C(F)(F)F)cccc1C(F)(F)F)C(=O)Nc1ccccc12 [Example 208] | – | < 100 | –
N#C[C@@H]1C[C@@]2(CN1C(=O)[C@H](CC1CC1)NC(=O)C(=O)Nc1c(Cl)cc(F)cc1C(F)(F)F)C(=O)Nc1ccccc12 [Example 209] | – | < 100 | –
CC(C)(C)C[C@H](NC(=O)C(=O)Nc1c(C(F)(F)F)ccc(Cl)c1Cl)C(=O)N1C[C@]2(C[C@H]1C#N)C(=O)Nc1ccccc12 [Example 210] | – | < 100 | –

From patent publication US12643905B2, “Spiropyrrolidine derived antiviral agents” (priority 2021, dated 2026)
